From patent publication US20260297060A1, “COMPOUNDS FOR THE DEGRADATION OF MUTANT BRAF” (C4 THERAPEUTICS, INC., priority 2023, published 2026) come the findings set out here.

The target in this experiment is T1, BRAF V600E (Homo sapiens, UniProt P15056+Q96SW2, V600E).
T1 construct: knock-in of the HiBiT tag to the endogenous BRAF V600E locus; host or cells: A375.10 (A375 clonal line, CRISPR HiBiT knock-in at the endogenous BRAF V600E locus)
Nature of the experiment: BRAF V600E HiBiT Degradation Assay. It counts as cell-based. The essentials: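 Endogenous HiBiT knock-in on BRAF V600E in A375 cells (clone A375.10); 11-point half-log series, top 10 μM, 2, 6 or 24 h at 37° C. Lytic HiBiT luminescence, background-subtracted, normalized to DMSO; 4-parameter fit gives DC50, Emax (residual protein) and IP (inflection point).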
Background: With HiBiT, luminescence reflects the tagged protein that the partner subunit can reach.

Where [1] appears, read: A375.10 cells, BRAF V600E, 2 hours, inflection point, read-out: HiBiT-Degradation A375.10 BRAF 2 hours IP.
The mark [2] stands for this setting: A375.10 cells, BRAF V600E, 2 hours, read-out: HiBiT-Degradation A375.10 BRAF 2 hours DC50.
The mark [3] stands for this setting: A375.10 cells, BRAF V600E, 2 hours, residual protein remaining, read-out: HiBiT-Degradation A375.10 BRAF 2 hours Emax.
Setting [4] is: A375.10 cells, BRAF V600E, 6 hours, inflection point, read-out: HiBiT-Degradation A375.10 BRAF 6 hours IP.
Setting [5] is: A375.10 cells, BRAF V600E, 6 hours, read-out: HiBiT-Degradation A375.10 BRAF 6 hours DC50.
Setting [6] is: A375.10 cells, BRAF V600E, 6 hours, residual protein remaining, read-out: HiBiT-Degradation A375.10 BRAF 6 hours Emax.
Setting [7] is: A375.10 cells, HiBiT, BRAF V600E, 24 hours, read-out: HiBiT-Degradation A375.10 BRAF 24 hours DC50.
Where [8] appears, read: A375.10 cells, HiBiT, BRAF V600E, 24 hours, read-out: HiBiT-Degradation A375.10 BRAF 24 hours Emax.
The mark [9] stands for this setting: A375.10 cells, HiBiT, BRAF V600E, 24 hours, read-out: HiBiT-Degradation A375.10 BRAF 24 hours IP.
[10] abbreviates: read-out: HiBiT-Degradation A375.10 BRAF 2 hours Emax, A375.10 cells, BRAF V600E, 2 hours, residual protein remaining.

Structures are written as SMILES. Like-named read-outs stand apart in the source and are kept apart here.

T1 sequence (P15056 whole entry V600E): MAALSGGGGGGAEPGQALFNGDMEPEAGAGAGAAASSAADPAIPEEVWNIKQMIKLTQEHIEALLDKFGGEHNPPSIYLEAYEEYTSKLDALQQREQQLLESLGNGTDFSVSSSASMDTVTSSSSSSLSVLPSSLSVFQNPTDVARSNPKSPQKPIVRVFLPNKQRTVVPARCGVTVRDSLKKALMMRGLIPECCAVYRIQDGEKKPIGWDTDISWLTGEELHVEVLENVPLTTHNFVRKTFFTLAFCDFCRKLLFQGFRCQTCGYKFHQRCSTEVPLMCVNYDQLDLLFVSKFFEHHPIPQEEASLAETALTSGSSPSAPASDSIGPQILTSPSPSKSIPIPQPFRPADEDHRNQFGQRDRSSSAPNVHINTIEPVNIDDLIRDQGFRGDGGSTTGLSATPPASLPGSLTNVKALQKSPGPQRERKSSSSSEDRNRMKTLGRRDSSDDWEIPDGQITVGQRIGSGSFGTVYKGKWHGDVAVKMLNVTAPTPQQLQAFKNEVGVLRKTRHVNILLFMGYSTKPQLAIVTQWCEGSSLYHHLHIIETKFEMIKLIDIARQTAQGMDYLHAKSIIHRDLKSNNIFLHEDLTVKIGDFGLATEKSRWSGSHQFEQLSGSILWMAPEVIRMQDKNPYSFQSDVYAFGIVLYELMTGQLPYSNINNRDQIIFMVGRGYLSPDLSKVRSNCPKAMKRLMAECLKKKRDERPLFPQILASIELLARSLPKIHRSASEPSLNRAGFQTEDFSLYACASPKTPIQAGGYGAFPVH
T1 sequence (Q96SW2 whole entry): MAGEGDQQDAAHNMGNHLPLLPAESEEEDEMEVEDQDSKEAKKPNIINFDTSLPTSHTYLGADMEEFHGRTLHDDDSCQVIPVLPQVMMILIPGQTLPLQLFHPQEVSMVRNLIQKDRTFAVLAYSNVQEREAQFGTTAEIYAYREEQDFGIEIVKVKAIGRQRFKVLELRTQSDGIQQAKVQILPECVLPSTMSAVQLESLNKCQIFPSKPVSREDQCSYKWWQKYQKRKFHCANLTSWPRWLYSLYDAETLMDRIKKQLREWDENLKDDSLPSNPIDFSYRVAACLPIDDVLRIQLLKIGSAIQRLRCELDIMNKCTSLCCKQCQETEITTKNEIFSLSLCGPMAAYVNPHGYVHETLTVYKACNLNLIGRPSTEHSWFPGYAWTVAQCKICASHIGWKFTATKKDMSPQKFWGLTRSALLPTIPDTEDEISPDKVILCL
T1 sequence (Q16531 whole entry partner): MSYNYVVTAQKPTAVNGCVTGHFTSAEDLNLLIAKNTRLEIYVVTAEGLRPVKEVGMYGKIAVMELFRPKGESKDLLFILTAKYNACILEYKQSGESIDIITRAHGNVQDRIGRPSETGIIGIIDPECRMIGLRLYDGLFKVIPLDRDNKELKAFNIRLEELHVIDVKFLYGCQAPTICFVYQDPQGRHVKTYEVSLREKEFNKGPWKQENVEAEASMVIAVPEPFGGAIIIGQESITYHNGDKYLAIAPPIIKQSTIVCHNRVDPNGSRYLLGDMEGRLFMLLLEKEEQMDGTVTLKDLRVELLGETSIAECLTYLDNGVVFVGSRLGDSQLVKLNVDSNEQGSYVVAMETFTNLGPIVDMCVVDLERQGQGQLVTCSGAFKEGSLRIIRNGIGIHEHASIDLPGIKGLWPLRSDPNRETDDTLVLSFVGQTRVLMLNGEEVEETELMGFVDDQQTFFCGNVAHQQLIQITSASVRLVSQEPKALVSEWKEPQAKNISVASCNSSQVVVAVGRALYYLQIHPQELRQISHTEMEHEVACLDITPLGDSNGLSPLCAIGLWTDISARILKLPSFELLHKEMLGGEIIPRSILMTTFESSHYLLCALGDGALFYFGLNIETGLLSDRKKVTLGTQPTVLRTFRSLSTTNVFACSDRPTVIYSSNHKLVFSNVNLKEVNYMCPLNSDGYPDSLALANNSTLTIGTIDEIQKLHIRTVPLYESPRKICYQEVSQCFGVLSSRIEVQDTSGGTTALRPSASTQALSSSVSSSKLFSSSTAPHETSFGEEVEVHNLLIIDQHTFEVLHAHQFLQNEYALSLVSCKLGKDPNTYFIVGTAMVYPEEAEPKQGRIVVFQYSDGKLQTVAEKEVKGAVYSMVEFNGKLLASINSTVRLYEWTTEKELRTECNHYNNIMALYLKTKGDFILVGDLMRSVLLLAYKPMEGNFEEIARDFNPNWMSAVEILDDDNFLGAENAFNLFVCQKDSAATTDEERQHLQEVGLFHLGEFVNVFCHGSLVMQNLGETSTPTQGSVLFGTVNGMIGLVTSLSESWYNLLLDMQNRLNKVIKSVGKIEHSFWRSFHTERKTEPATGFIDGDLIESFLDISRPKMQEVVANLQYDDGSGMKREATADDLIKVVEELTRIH

On to `CCN(C)S(=O)(=O)Nc1ccc(F)c(Oc2ccc3ncn([C@H]4COC5(CCN(C6CCC(c7cc8c(cc7F)c(N7CCC(=O)NC7=O)nn8C)CC6O)CC5)C4)c(=O)c3c2)c1C#N` (single isomer, unassigned) [Compound 43], for which the DC50 by setting is: under setting [1], less than 1000 nM; under setting [2], less than 1000 nM; under setting [4], less than 1000 nM; under setting [5], less than 1000 nM; under setting [7], less than 1000 nM; under setting [9], less than 1000 nM. The Emax (as a rule, the maximal effect, on the per cent scale that the assay sets) runs as follows: under setting [3], 50 to 90%; under setting [6], less than 50%; under setting [8], less than 50%.

With `CCN(C)S(=O)(=O)Nc1ccc(F)c(Oc2ccc3ncn([C@@H]4COC5(CCN(C6CCC(c7cc8c(cc7F)c(N7CCC(=O)NC7=O)nn8C)CC6)CC5)C4)c(=O)c3c2F)c1C#N` (single isomer, unassigned) [Compound 46], the DC50 under setting [1] was less than 1000 nM; the DC50 under setting [2] is less than 1000 nM; the DC50 under setting [4] was less than 1000 nM; the DC50 under setting [5] was less than 1000 nM; the DC50 under setting [7] was less than 1000 nM; the DC50 under setting [9] was less than 1000 nM. Besides, the Emax is less than 50% under setting [6], less than 50% under setting [8] and less than 50% under setting [10].

As for `CCN(C)S(=O)(=O)Nc1ccc(F)c(Oc2ccc3ncc([C@H]4COC5(CCN(C6CCC(c7cc8c(cc7F)c(N7CCC(=O)NC7=O)nn8C)CC6)CC5)C4)nc3c2)c1C#N` (single isomer, unassigned) [Compound 48], the DC50 under setting [1] is less than 1000 nM; the DC50 under setting [2] was less than 1000 nM; the DC50 under setting [4] is less than 1000 nM; the DC50 under setting [5] was less than 1000 nM; the DC50 under setting [7] was less than 1000 nM; the DC50 under setting [9] is less than 1000 nM. Besides, the Emax reads like this: under setting [6], less than 50%; under setting [8], less than 50%; under setting [10], less than 50%.

In the case of `CCN(C)S(=O)(=O)Nc1ccc(F)c(Oc2ccc3ncn([C@H]4COC5(CCN(C6CCC(c7ccc(NC8CCC(=O)NC8=O)cc7F)CC6)CC5)C4)c(=O)c3c2F)c1C#N` (single isomer, unassigned) [Compound 50], the DC50 under setting [1] is less than 1000 nM; the DC50 under setting [2] is less than 1000 nM; the DC50 under setting [4] was less than 1000 nM; the DC50 under setting [5] is less than 1000 nM; the DC50 under setting [7] was less than 1000 nM; the DC50 under setting [9] was less than 1000 nM. In addition, the Emax by setting is: under setting [3], less than 50%; under setting [6], less than 50%; under setting [8], less than 50%.

With `CCN(C)S(=O)(=O)Nc1ccc(F)c(Oc2ccc3ncn([C@@H]4COC5(CCN(C6CCC(c7ccc(NC8CCC(=O)NC8=O)cc7F)CC6)CC5)C4)c(=O)c3c2F)c1C#N` (single isomer, unassigned) [Compound 52], the DC50 by setting is: under setting [1], less than 1000 nM; under setting [2], less than 1000 nM; under setting [4], less than 1000 nM; under setting [5], less than 1000 nM; under setting [7], less than 1000 nM; under setting [9], less than 1000 nM. The Emax is less than 50% under setting [3], less than 50% under setting [6] and less than 50% under setting [8].

Regarding `CCN(C)S(=O)(=O)Nc1ccc(F)c(Oc2ccc3ncc([C@@H]4COC5(CCN(C6CCC(c7cc8c(cc7F)c(N7CCC(=O)NC7=O)nn8C)CC6)CC5)C4)nc3c2)c1C#N` (single isomer, unassigned) [Compound 54], the DC50 under setting [1] was less than 1000 nM; the DC50 under setting [2] was less than 1000 nM; the DC50 under setting [4] is less than 1000 nM; the DC50 under setting [5] was less than 1000 nM; the DC50 under setting [7] is less than 1000 nM; the DC50 under setting [9] was less than 1000 nM. In addition, the Emax reads like this: under setting [6], less than 50%; under setting [8], less than 50%; under setting [10], less than 50%.

Take `CCN(C)S(=O)(=O)Nc1ccc(F)c(Oc2ccc3ncc([C@H]4COC5(CCN(C6CCC(c7ccc(NC8CCC(=O)NC8=O)cc7F)CC6)CC5)C4)nc3c2)c1C#N` (single isomer, unassigned) [Compound 58]: the DC50 is, setting by setting: under setting [1], less than 1000 nM; under setting [2], less than 1000 nM; under setting [4], less than 1000 nM; under setting [5], less than 1000 nM; under setting [7], less than 1000 nM; under setting [9], less than 1000 nM. The maximal response (Emax) under setting [6] was less than 50%, the Emax under setting [8] was less than 50% and the Emax under setting [10] was less than 50%.

As to `CCN(C)S(=O)(=O)Nc1ccc(F)c(Oc2ccc3ncc([C@@H]4COC5(CCN(C6CCC(c7ccc(NC8CCC(=O)NC8=O)cc7F)CC6)CC5)C4)nc3c2)c1C#N` (single isomer, unassigned) [Compound 60], the DC50 was less than 1000 nM under setting [1]; less than 1000 nM under setting [2]; less than 1000 nM under setting [4]; less than 1000 nM under setting [5]; less than 1000 nM under setting [7]; less than 1000 nM under setting [9]. For the same compound, the Emax runs as follows: under setting [6], less than 50%; under setting [8], less than 50%; under setting [10], less than 50%.

For `CCN(C)S(=O)(=O)Nc1ccc(F)c(Oc2ccc3ncn([C@H]4COC5(CCN(C6CC(c7ccc(NC8CCC(=O)NC8=O)cc7F)C6)CC5)C4)c(=O)c3c2)c1C#N` (single isomer, unassigned) [Compound 62], the DC50 under setting [1] is less than 1000 nM; the DC50 under setting [2] was less than 1000 nM; the DC50 under setting [4] was less than 1000 nM; the DC50 under setting [5] was less than 1000 nM; the DC50 under setting [7] was less than 1000 nM; the DC50 under setting [9] was less than 1000 nM. Besides, the Emax is, setting by setting: under setting [3], less than 50%; under setting [6], less than 50%; under setting [8], less than 50%.

As to `CCN(C)S(=O)(=O)Nc1ccc(F)c(Nc2ccc3ncn([C@H]4COC5(CCN(C6CCC(c7cc8c(cc7F)c(N7CCC(=O)NC7=O)nn8C)CC6)CC5)C4)c(=O)c3c2)c1C#N` (single isomer, unassigned) [Compound 64], the DC50 reads like this: under setting [1], less than 1000 nM; under setting [2], less than 1000 nM; under setting [4], less than 1000 nM; under setting [5], less than 1000 nM; under setting [7], less than 1000 nM; under setting [9], less than 1000 nM. Further, the Emax is less than 50% under setting [3], less than 50% under setting [6] and less than 50% under setting [8].

For `CCN(C)S(=O)(=O)Nc1ccc(F)c(Nc2ccc3ncn([C@H]4COC5(CCN(C6CCC(c7cc8c(cc7F)c(N7CCC(=O)NC7=O)nn8C)CC6)CC5)C4)c(=O)c3c2F)c1C#N` (single isomer, unassigned) [Compound 67], the DC50 is less than 1000 nM under setting [1]; less than 1000 nM under setting [2]; less than 1000 nM under setting [4]; less than 1000 nM under setting [5]; less than 1000 nM under setting [7]; less than 1000 nM under setting [9]. The Emax is, setting by setting: under setting [3], less than 50%; under setting [6], less than 50%; under setting [8], less than 50%.

Regarding `CCN(C)S(=O)(=O)Nc1ccc(F)c(Oc2ccc3ncn([C@H]4COC5(CCN(C6CC(c7cc8c(cc7F)c(N7CCC(=O)NC7=O)nn8C)C6)CC5)C4)c(=O)c3c2)c1C#N` (single isomer, unassigned) [Compound 70], the “HiBiT-Degradation A375.10 BRAF 2 hours IP” value (A375.10 cells, BRAF V600E, 2 hours, inflection point) is “*** (<=1 μM)”. Moreover, the Emax is less than 50% under setting [3], less than 50% under setting [6] and less than 50% under setting [8]. Also, the “HiBiT-Degradation A375.10 BRAF 6 hours IP” value (A375.10 cells, BRAF V600E, 6 hours, inflection point) is “*** (<=1 μM)”. The “HiBiT-Degradation A375.10 BRAF 24 hours IP” value (A375.10 cells, HiBiT, BRAF V600E, 24 hours) is “*** (<=1 μM)”. Moreover, the DC50 (read-out: HiBiT-Degradation A375.10 BRAF 2 hours DC50, A375.10 cells, BRAF V600E, 2 hours) was less than 1000 nM; the DC50 (read-out: HiBiT-Degradation A375.10 BRAF 6 hours DC50, A375.10 cells, BRAF V600E, 6 hours) was less than 1000 nM; the DC50 (read-out: HiBiT-Degradation A375.10 BRAF 24 hours DC50, A375.10 cells, HiBiT, BRAF V600E, 24 hours) was less than 1000 nM.

As to `CCN(C)S(=O)(=O)Nc1ccc(F)c(Oc2ccc3ncn([C@H]4COC5(CCN(C6CCC(c7cc8c(cc7F)c(N7CCC(=O)NC7=O)nn8C)CC6)CC5)C4)c(=O)c3c2)c1F` (single isomer, unassigned) [Compound 71], the DC50 under setting [1] is less than 1000 nM; the DC50 under setting [2] was less than 1000 nM; the DC50 under setting [4] was less than 1000 nM; the DC50 under setting [5] was less than 1000 nM; the DC50 under setting [7] is less than 1000 nM; the DC50 under setting [9] was less than 1000 nM. The Emax under setting [3] is less than 50%, the Emax under setting [6] is less than 50% and the Emax under setting [8] was less than 50%.

As for `CN(CCO)S(=O)(=O)Nc1ccc(F)c(Oc2ccc3ncn([C@H]4COC5(CCN(C6CCC(c7cc8c(cc7F)c(N7CCC(=O)NC7=O)nn8C)CC6)CC5)C4)c(=O)c3c2)c1C#N` (single isomer, unassigned) [Compound 73], the DC50 by setting is: under setting [1], less than 1000 nM; under setting [2], less than 1000 nM; under setting [4], less than 1000 nM; under setting [5], less than 1000 nM; under setting [7], less than 1000 nM; under setting [9], less than 1000 nM. The maximum response (Emax) reads like this: under setting [3], less than 50%; under setting [6], less than 50%; under setting [8], less than 50%.
